# From patent publication US12410152B2, “Oxazole and thioazole-type cullin ring ubiquitin ligase compounds and uses thereof” (Proxygen GmbH, priority 2019, dated 2025)
# Columns and labels:
# [1] = test system: KBM7 WT cells (global proteome); assay: Quantitative expression proteomics (TMT isobaric tagging), drug vs DMSO; format: cell-based, human
# Description: The mechanism by which the assayed molecules re-program a functional CRL4B complex based on the data shown could be that drug binding to CUL4B recruits a neo-substrate directly to the cullin backbone. Alternatively, drug binding could stabilize CUL4B function to boost time intervals where a functionally competent CUL4B complexes can be formed. Here, the word “functional” implies that the CUL4B backbone of this complex needs to be neddylated, and a CUL4B associated E2 ubiquitin-conjugating enzyme (UBE2G1) needs to be bound. FIG. 9 outlines one possible mechanism. Both predicted mechanisms of action would result in a functionally altered CRL4B complex, and thus an altered stability of drug-induced (neo-) substrates. In order to identify target proteins with a decreased abundance or, in other words, target proteins that become degraded by CRL4B after drug treatment, global proteome composition was measured using quantitative expression proteomics (TMT-labeling). In brief, KBM7 cells were drug treated for 12 hours, lysed, and subjected to isobaric tagging. Ensuing proteomics analysis quantified a total of 7,903 proteins at a minimum spectral count of 2. […] Data on essentiality are taken from Hart et al., G3, August 2017 (PMID: 28655737).
# 50×10^6 KBM7^WT cells per condition were collected, washed four times with ice-cold PBS, the supernatant aspirated and pellets snap-frozen in liquid N2. Each washed cell pellet was lysed separately in 40 μL of freshly prepared lysis buffer as previously described (see Mayor-Ruiz et al., Mol Cell 2019)
# Offline Fractionation via RP-HPLC at high pH and 2D-RP/RP Liquid Chromatography Mass Spectrometry were performed as previously described (see Mayor-Ruiz et al., Mol Cell 2019).
# Acquired raw data files were processed using the Proteome Discoverer 2.2.0 platform, utilizing the Sequest HT database search engine and Percolator validation software node (V3.04) to remove false positives with a false discovery rate (FDR) of 1% on peptide and protein level under strict conditions. Searches were performed with full tryptic digestion against the human SwissProt database v2017.06 with up to two allowed miscleavage sites. Oxidation (+15.9949 Da) of methionine was set as variable modification, whilst carbamidomethylation (+57.0214 Da) of cysteine residues and TMT 6-plex labelling of peptide N-termini and lysine residues were set as fixed modifications. Data was searched with mass tolerances of ±10 ppm and ±0.02 Da on the precursor and fragment ions, respectively. Results were filtered to include peptide spectrum matches (PSMs) with Sequest HT cross-correlation factor (Xcorr) scores of […] and high peptide confidence assigned by Percolator. MS^2 signal-to-noise values (S/N) values of TMT reporter ions were used to estimate peptide/protein abundance changes. PSMs with precursor isolation interference values of ≥ 50% and average TMT-reporter ion S/N≤10 were excluded from quantitation. Only unique peptides were used for TMT quantitation as well as for TOP3 label-free quantitation. Isotopic impurity correction and TMT channel-normalization based on total peptide amount were applied. For statistical analysis and p-value calculation, the integrated ANOVA hypothesis test was used. TMT ratios with p-values below 0.01 were considered as significant. Only proteins with >1 peptide detected and >1 unique peptide detected were considered for further analysis. For the calling of destabilized proteins, a log 2 fold change threshold (drug/DMSO) of −0.3 was applied.
# Comparison of overall proteome-wide changes in KBM7 cells treated with IC020772.1 (2.5 μM), IC021313.2 (7 μM) or T6938051 (3.5 μM) for 5 h and 12h, using quantitative proteomics based on isobaric tagging.
# The protein names in Table 4, Table 5 and Table 6 refer to the protein names as provided by HUGO Gene Nomenclature Committee (HGNC) database. […]
# [2] = test system: KBM7 WT and UBE2Mmut cells; assay: Primary phenotypic screen, differential viability KBM7 WT vs UBE2M mutant; format: cell-based, human; conditions: 10 μM and 500 nM, 3 days
# Method: Following this observation, it was rationalized that novel small molecule degraders can be identified in an unbiased manner, simply by searching for compounds that lose activity in the absence of UBE2M. 2000 small molecules, mostly of unknown function/target, were tested for their antiproliferative effects in human leukemia cells (KBM7). These cells were either transduced with a control sgRNA (KBM7WT), or with an sgRNA targeting UBE2M, leading to a hypomorph (deletion of six amino acids) with a functional impairment (UBE2Mmut).
# KBM7^WT and UBE2M^mut cells were treated with a compound library (2000 cytotoxic diverse small-molecules, mostly of unknown function/target). Briefly, the screening was divided in three parts 1) primary screening, 2) follow up and 3) validation. During the primary screening, cells were treated with 10 μM and 500 nM of every compound. […] After 3 days of treatment, cell viability was measured (CellTiter Glo, Promega). The screen was perform in 384-well plates (Corning 3712) and the reagent/compound dispensing system used was: Echo 520 Liquid Handler, Multidrop™ Combi Reagent Dispenser. Control compounds were included in several wells, in all the plates. Method for validation of IC021313.2, IC020822.1, IC020772.1, T6938051 as described above in (i).
structure (smiles),measurement,setting,value
Cc1ccc(C(=O)N2CSCC2C(=O)N=c2[nH]cc(C)s2)o1 (stereo not drawn) [Compound T6938051],"number of proteins significantly downregulated (log2FC < -0.3), destabilized proteins","[1]; KBM7 cells, 12 hours, ~10xEC50, 7,903 proteins quantified",793
same,number of downregulated proteins known to be implicated in KBM7 proliferation (essential for KBM7 viability),"[1]; KBM7 cells, 12 hours, essentiality from Hart et al. 2017",142
same,number of proteins with log2FC < −0.3,[1]; T6938051 vs DMSO,T6938051: 793 proteins
same,number of essential proteins among proteins with log2FC < −0.3,"[1]; T6938051 vs DMSO, essential = implicated in KBM7 proliferation",log2FC < −0.3 (142 essential proteins)
same,log2FC (T6938051/DMSO),"[1]; protein ABCF2 (accession Q9UG63-2), expression proteomics, drug vs DMSO, essential: false",−0.3004
same,hit in differential viability screen,[2],stood out in terms of fold-change significance
